In PMC8151276, “An Integrated Approach toward NanoBRET Tracers for Analysis of GPCR Ligand Engagement” (Molecules, 2021):

Assays:
Format in all cases: binding
DRD5 = target: T1, DRD5 (Homo sapiens, UniProt P21918); experiment: NanoBRET screen HiBiT-DRD5 in HEK293
T1 construct: purchased Promega (in-house HiBiT-GPCR construct library, NanoBRET)
Experimental: (§1) Each tracer candidate was screened across the entire library of HiBiT-GPCR constructs using NanoBRET as the detection modality. As depicted in Figure 4A, the specificity of interactions was evaluated through decrease in BRET due to competitive displacement of a bound tracer by excess parental compound. Each tracer was analyzed for binding to each HiBiT-GPCR fusion in the absence and in the presence of competing parental compound. Briefly, HEK293 cells were transfected with HiBiT-GPCR constructs diluted into promoterless DNA to reduce expression and maximize translocation to the cell surface. Each tracer candidate was then screened at concentrations of 1 μM and 0.1 μM across cells expressing these fusions. Cells were treated for 1.5 h with tracer either alone or in the presence of 20 μM competing parental compound (i.e., control). BRET was measured upon addition of purified LgBiT and subsequent complementation with HiBiT genetically fused to a GPCR. The specificity of interactions was assessed through a decrease in BRET signal due to competitive displacement of the bound tracer. To further gauge the robustness of these interactions, the fold response over the control (i.e., BRETtracer/BRETcontrol) was calculated. We chose a 1.5-fold response, which translates to ≥7-fold signal over noise as the minimal threshold required to score an interaction as positive. […]. Below we highlight the screening results obtained for our exemplary fluorescent tracers based on Clozapine, Amitriptyline and AZD1283.
(§2) HiBiT-GPCR DNA constructs were diluted in 10 mM Tris pH 8 to a final concentration of 0.01 μg/μL, arrayed in 96-well plates and stored at −20 °C. For transfection, HEK293 cells were suspended in Opti-MEM (without phenol red) supplemented with 2% fetal bovine serum (Seradigm) and 100 units/mL penicillin–streptomycin (Gibco) at a final concentration of 220,000 cells/mL and dispensed into white 96-well plates at 90 μL/well. Subsequent transfections and screens were carried using an Agilent Bravo Automated Liquid Handling Platform. First, the 96-well HiBiT DNA arrays were diluted 25-fold in Opti-MEM (without serum or phenol red) to a final concentration of 0.0004 μg/μL and 20 μL of the diluted DNAs were transferred into new 96-well plates. Next, promoterless carrier DNA (1 μg/μL) was diluted 25-fold (0.04 μg/μL) and then dispensed into the diluted arrays at 20 μL/well. Following brief mixing, Viafect transfection reagent (Promega) diluted 16-fold into Opti-MEM was dispensed into the plates at 40 μL/well. After mixing by pipetting, plates were incubated for 10 min on the pipetting station deck. The DNA-transfection reagent complexes were then added to plates containing cells. To facilitate the screen, 10 μL of DNA-transfection reagent complexes were added in duplicates to the top 4 and bottom 4 rows, resulting in two identical 48-well arrays per plate. Plates with transfected cells were incubated for 18–20 h at 37 °C/5% CO2. A screen of each tracer across the entire library using two different concentrations requires duplicate plates of transfected cells. Depending on the number of tracers being screened, transfections can be scaled up using the same ratios. The next day, for each tracer, four 20× screening solutions in tracer dilution buffer (Promega) were prepared: two duplicates at final concentration of 20 μM and two duplicates at a final concentration of 2 μM. A competing unmodified compound was added to one of each duplicate at a final concentration of 400 μM. The four resulting solutions were diluted 4-fold in Opti-MEM without serum or phenol red to generate 5× solutions (5 µM and 0.5 µM tracer +/− 100 μM competing compound). To screen the library, a BioTek MultiFlo FX liquid dispenser was used to dispense 22.5 µL of tracer solution to the top 4 rows and 22.5 µL tracer + competing compound solution to the 4 bottom rows. Plates were briefly mixed on an orbital shaker and incubated for 1.5 h at room temperature. […]

RXFP3 = target: T2, RXFP3 (Homo sapiens, UniProt Q9NSD7); experiment: NanoBRET screen HiBiT-RXFP3 in HEK293
T2 construct: purchased Promega (in-house HiBiT-GPCR construct library, NanoBRET)
T2 sequence (Q9NSD7 1-469): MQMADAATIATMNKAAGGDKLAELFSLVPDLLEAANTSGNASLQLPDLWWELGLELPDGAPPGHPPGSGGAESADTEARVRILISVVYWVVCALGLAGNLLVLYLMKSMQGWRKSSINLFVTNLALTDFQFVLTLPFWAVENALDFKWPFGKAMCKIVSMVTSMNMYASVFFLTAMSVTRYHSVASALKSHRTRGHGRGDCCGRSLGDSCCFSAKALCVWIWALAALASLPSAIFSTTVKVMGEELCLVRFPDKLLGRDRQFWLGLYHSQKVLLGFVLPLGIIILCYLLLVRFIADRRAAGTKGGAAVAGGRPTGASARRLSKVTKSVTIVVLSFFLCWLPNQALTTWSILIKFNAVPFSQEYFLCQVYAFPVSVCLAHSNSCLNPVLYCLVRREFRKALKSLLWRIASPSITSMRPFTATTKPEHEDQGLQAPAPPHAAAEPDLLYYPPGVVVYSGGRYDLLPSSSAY
Experimental: as §1, §2

CCR2 = target: T3, CCR2 (Homo sapiens, UniProt P41597); experiment: NanoBRET screen HiBiT-CCR2 in HEK293
T3 construct: purchased Promega (in-house HiBiT-GPCR construct library, NanoBRET)
T3 sequence (P41597 whole entry): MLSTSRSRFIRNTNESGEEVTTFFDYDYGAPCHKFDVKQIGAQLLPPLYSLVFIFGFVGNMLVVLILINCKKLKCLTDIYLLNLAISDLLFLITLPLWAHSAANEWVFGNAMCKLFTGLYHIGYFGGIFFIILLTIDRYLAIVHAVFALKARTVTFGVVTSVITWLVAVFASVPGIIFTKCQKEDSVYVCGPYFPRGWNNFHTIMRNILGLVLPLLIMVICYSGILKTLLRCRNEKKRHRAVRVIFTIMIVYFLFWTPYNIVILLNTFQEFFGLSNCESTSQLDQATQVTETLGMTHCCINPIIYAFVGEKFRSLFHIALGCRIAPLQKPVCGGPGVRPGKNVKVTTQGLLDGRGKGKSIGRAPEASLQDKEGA
Experimental: as §1, §2

PTAFR = target: T4, PTAFR (Homo sapiens, UniProt P25105); experiment: NanoBRET screen HiBiT-PTAFR in HEK293
T4 construct: purchased Promega (in-house HiBiT-GPCR construct library, NanoBRET)
T4 sequence (P25105 whole entry): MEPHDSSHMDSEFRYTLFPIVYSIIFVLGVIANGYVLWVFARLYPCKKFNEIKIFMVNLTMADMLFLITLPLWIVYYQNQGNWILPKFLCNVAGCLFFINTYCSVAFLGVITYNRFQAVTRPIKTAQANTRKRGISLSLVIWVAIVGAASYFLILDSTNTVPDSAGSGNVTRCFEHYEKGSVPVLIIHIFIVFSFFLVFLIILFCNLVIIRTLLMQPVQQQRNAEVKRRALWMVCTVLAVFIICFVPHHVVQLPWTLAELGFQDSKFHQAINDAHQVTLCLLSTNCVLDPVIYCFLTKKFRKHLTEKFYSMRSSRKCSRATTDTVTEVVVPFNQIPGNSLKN
Experimental: as §1, §2

SMO = target: T5, SMO (Homo sapiens, UniProt Q99835); experiment: NanoBRET screen HiBiT-SMO in HEK293
T5 construct: purchased Promega (in-house HiBiT-GPCR construct library, NanoBRET)
T5 sequence (Q99835 28-787): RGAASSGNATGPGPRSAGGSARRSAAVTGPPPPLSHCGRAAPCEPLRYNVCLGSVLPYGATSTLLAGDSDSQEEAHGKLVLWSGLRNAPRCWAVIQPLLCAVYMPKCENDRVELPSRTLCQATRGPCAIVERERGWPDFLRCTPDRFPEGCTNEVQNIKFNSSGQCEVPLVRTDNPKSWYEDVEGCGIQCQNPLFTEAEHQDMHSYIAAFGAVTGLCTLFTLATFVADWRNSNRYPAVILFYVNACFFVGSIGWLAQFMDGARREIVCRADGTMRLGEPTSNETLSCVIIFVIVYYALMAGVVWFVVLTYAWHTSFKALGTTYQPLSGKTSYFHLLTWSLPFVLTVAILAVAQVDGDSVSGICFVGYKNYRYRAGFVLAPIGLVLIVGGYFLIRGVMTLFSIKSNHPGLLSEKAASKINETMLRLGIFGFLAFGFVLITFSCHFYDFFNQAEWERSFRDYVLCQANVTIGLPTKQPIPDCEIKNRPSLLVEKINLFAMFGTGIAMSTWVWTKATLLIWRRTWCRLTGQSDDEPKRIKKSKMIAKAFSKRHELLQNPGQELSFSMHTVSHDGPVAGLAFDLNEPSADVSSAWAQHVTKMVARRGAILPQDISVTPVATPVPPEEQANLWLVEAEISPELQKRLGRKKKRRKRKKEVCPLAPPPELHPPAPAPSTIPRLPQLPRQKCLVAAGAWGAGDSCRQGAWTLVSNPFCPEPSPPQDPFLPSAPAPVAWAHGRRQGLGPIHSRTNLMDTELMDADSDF
Experimental: as §1, §2

CNR1 = target: T6, CNR1 (Homo sapiens, UniProt P21554); experiment: NanoBRET screen HiBiT-CNR1 in HEK293
T6 construct: purchased Promega (in-house HiBiT-GPCR construct library, NanoBRET)
T6 sequence (P21554 whole entry): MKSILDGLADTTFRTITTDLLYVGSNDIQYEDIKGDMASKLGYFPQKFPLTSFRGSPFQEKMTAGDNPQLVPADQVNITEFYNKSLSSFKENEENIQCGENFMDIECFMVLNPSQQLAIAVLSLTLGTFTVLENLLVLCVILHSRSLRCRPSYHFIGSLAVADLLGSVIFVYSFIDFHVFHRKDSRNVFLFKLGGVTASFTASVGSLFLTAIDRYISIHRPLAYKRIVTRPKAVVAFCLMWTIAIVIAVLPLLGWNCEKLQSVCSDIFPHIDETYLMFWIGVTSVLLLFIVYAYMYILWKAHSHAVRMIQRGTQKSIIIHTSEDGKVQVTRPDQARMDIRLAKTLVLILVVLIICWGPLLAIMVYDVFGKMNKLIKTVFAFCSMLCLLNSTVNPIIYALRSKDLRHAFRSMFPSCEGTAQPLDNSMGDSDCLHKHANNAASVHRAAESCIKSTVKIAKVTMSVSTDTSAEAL
Experimental: as §1, §2

SSTR1 = target: T7, SSTR1 (Homo sapiens, UniProt P30872); experiment: NanoBRET screen HiBiT-SSTR1 in HEK293
T7 construct: purchased Promega (in-house HiBiT-GPCR construct library, NanoBRET)
T7 sequence (P30872 whole entry): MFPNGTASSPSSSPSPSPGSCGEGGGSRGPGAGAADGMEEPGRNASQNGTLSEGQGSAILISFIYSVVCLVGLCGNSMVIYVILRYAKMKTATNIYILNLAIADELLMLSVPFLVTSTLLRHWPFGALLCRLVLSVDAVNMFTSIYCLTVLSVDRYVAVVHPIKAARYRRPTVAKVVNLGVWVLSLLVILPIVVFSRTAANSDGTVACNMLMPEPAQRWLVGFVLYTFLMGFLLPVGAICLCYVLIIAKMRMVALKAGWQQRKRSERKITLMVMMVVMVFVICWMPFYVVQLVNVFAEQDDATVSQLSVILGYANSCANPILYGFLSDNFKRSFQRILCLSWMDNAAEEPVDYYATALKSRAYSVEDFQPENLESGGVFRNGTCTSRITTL
Experimental: as §1, §2

PTGDR2 = target: T8, PTGDR2 (Homo sapiens, UniProt Q9Y5Y4); experiment: NanoBRET screen HiBiT-PTGDR2 in HEK293
T8 construct: purchased Promega (in-house HiBiT-GPCR construct library, NanoBRET)
T8 sequence (Q9Y5Y4 1-395): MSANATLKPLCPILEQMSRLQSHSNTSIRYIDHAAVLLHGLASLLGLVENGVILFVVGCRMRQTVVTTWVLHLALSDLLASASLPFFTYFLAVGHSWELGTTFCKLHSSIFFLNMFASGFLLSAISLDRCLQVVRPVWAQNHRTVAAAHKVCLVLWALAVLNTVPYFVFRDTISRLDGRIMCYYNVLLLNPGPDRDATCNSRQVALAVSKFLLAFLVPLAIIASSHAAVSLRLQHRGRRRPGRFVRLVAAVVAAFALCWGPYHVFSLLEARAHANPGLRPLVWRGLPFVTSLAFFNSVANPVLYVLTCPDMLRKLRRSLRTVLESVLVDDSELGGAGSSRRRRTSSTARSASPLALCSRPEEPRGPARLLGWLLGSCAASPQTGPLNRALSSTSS
Experimental: as §1, §2

HTR1D = target: T9, HTR1D (Homo sapiens, UniProt P28221); experiment: NanoBRET screen HiBiT-HTR1D in HEK293
T9 construct: purchased Promega (in-house HiBiT-GPCR construct library, NanoBRET)
T9 sequence (P28221 whole entry): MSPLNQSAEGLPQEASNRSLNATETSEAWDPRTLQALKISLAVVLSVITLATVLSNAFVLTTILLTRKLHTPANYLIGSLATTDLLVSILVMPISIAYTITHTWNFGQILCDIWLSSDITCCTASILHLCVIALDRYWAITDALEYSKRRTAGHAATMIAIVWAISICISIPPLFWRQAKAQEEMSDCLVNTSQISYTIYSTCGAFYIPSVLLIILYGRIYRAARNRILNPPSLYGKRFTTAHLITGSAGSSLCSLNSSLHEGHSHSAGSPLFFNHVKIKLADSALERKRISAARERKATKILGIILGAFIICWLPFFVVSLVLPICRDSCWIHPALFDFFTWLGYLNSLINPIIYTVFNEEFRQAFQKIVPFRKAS
Experimental: as §1, §2

T1 sequence (P21918 whole entry): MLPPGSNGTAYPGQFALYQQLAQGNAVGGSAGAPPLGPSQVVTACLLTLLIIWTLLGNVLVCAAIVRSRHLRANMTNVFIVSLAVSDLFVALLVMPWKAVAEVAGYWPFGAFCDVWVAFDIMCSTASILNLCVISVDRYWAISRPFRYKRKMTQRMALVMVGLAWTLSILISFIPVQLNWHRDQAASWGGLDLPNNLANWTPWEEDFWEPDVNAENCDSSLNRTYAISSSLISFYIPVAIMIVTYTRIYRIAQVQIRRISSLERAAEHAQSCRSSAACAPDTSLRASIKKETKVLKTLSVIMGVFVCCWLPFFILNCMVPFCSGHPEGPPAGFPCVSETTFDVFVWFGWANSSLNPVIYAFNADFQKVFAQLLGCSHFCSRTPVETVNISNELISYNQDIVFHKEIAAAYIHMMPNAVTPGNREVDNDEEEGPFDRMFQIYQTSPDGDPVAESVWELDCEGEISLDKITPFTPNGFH

Row | SMILES | NanoBRET Fold Response (DRD5; DRD5, tracer 0.1μM) | NanoBRET Fold Response (DRD5; DRD5, tracer 1μM) | NanoBRET Fold Response (RXFP3; RXFP3, tracer 0.1μM) | NanoBRET Fold Response (RXFP3; RXFP3, tracer 1μM) | NanoBRET Fold Response (CCR2; CCR2, tracer 0.1μM) | NanoBRET Fold Response (CCR2; CCR2, tracer 1μM) | NanoBRET Fold Response (PTAFR; PTAFR, tracer 0.1μM) | NanoBRET Fold Response (PTAFR; PTAFR, tracer 1μM) | NanoBRET Fold Response (SMO; SMO, tracer 0.1μM) | NanoBRET Fold Response (SMO; SMO, tracer 1μM) | NanoBRET Fold Response (CNR1; CNR1, tracer 0.1μM) | NanoBRET Fold Response (CNR1; CNR1, tracer 1μM) | NanoBRET Fold Response (SSTR1; SSTR1, tracer 0.1μM) | NanoBRET Fold Response (SSTR1; SSTR1, tracer 1μM) | NanoBRET Fold Response (PTGDR2; PTGDR2, tracer 0.1μM) | NanoBRET Fold Response (PTGDR2; PTGDR2, tracer 1μM) | NanoBRET Fold Response (HTR1D; HTR1D, tracer 0.1μM) | NanoBRET Fold Response (HTR1D; HTR1D, tracer 1μM) | other results
1 | CC(C)N(CC[C@H](c1ccccc1)c1cc(CCNC(=O)c2ccc(CNC(=O)CCc3ccc4n3[B-](F)(F)[N+]3=C(c5ccc[nH]5)C=CC3=C4)cc2)ccc1O)C(C)C [Tolterodine-BZ-NB590] | 1.02 | 1.18 | 1.01 | 1.19 | 0.99 | 0.89 | 0.93 | 0.85 | 0.93 | 0.94 | 1.01 | 0.13 | 1.15 | 1.20 | 0.98 | 0.96 | 1.27 | 0.92 | 
2 | O=C(CCOCCOCCOCCOCCNC(=O)CCc1ccc2n1[B-](F)(F)[N+]1=C(c3ccc[nH]3)C=CC1=C2)NCCCN1CCN(C2=Nc3ccccc3Oc3ccc(Cl)cc32)CC1 [Loxapine-a-2-NB590] | 1.25 | 2.20 | 1.11 | 1.22 | 0.97 | 0.81 | 1.10 | 1.09 | 0.98 | 1.15 | 0.72 | 0.29 | 1.06 | 1.30 | 1.06 | 1.04 | 1.35 | 1.74 | 
3 | CN1CCN(C2=Nc3cc(Cl)ccc3N(CC(=O)NCCOCCOCCOCCOCCNC(=O)CCc3ccc4n3[B-](F)(F)[N+]3=C(c5ccc[nH]5)C=CC3=C4)c3ccccc32)CC1 [Clozapine-c-2-NB590] |  |  |  |  |  |  |  |  |  |  |  |  |  |  |  |  |  |  | NanoBRET Fold Response (DRD5; DRD5, 0.1μM tracer): 0.98; NanoBRET Fold Response (DRD5; DRD5, 1μM tracer): 1.16; NanoBRET Fold Response (RXFP3; RXFP3, 0.1μM tracer): 0.99; NanoBRET Fold Response (RXFP3; RXFP3, 1μM tracer): 1.05; NanoBRET Fold Response (CCR2; CCR2, 0.1μM tracer): 0.94; NanoBRET Fold Response (CCR2; CCR2, 1μM tracer): 0.75; NanoBRET Fold Response (PTAFR; PTAFR, 0.1μM tracer): 1.01; NanoBRET Fold Response (PTAFR; PTAFR, 1μM tracer): 1.02; NanoBRET Fold Response (SMO; SMO, 0.1μM tracer): 0.97; NanoBRET Fold Response (SMO; SMO, 1μM tracer): 1.09; NanoBRET Fold Response (CNR1; CNR1, 0.1μM tracer): 0.99; NanoBRET Fold Response (CNR1; CNR1, 1μM tracer): 1.05; NanoBRET Fold Response (SSTR1; SSTR1, 0.1μM tracer): 0.98; NanoBRET Fold Response (SSTR1; SSTR1, 1μM tracer): 1.02; NanoBRET Fold Response (PTGDR2; PTGDR2, 0.1μM tracer): 0.96; NanoBRET Fold Response (PTGDR2; PTGDR2, 1μM tracer): 1.02; NanoBRET Fold Response (HTR1D; HTR1D, 0.1μM tracer): 1.00; NanoBRET Fold Response (HTR1D; HTR1D, 1μM tracer): 1.00
4 | Cc1nc2n(c(=O)c1CCN1CCC(c3noc4cc(F)ccc34)CC1)CCCC2OC(=O)NCCOCCOCCOCCOCCNC(=O)CCc1ccc2n1[B-](F)(F)[N+]1=C(c3ccc[nH]3)C=CC1=C2 (stereo not drawn) [Risperidone-2-NB590] | 1.92 | 2.44 | 1.00 | 1.00 | 1.01 | 1.16 | 1.00 | 1.10 | 0.86 | 1.00 | 1.00 | 1.02 | 1.08 | 0.94 | 0.99 | 0.96 | 1.38 | 1.86 | 
5 | COc1ccc2[nH]c(-c3ccc(CNC(=O)CCOCCOCCOCCOCCNC(=O)CCc4ccc5n4[B-](F)(F)[N+]4=C(c6ccc[nH]6)C=CC4=C5)cc3)c(CCNC(C)=O)c2n1 [AzomelatoninICO9-2-NB590] |  |  |  |  |  |  |  |  |  |  |  |  |  |  |  |  |  |  | NanoBRET Fold Response (DRD5; 0.1μM tracer): 1.14; NanoBRET Fold Response (DRD5; 1μM tracer): 0.93; NanoBRET Fold Response (RXFP3; 0.1μM tracer): 0.89; NanoBRET Fold Response (RXFP3; 1μM tracer): 1.22; NanoBRET Fold Response (CCR2; 0.1μM tracer): 1.23; NanoBRET Fold Response (CCR2; 1μM tracer): 1.22; NanoBRET Fold Response (PTAFR; 0.1μM tracer): 1.01; NanoBRET Fold Response (PTAFR; 1μM tracer): 0.99; NanoBRET Fold Response (SMO; 0.1μM tracer): 0.86; NanoBRET Fold Response (SMO; 1μM tracer): 1.25; NanoBRET Fold Response (CNR1; 0.1μM tracer): 0.99; NanoBRET Fold Response (CNR1; 1μM tracer): 1.02; NanoBRET Fold Response (SSTR1; 0.1μM tracer): 1.13; NanoBRET Fold Response (SSTR1; 1μM tracer): 1.01; NanoBRET Fold Response (PTGDR2; 0.1μM tracer): 1.06; NanoBRET Fold Response (PTGDR2; 1μM tracer): 1.12; NanoBRET Fold Response (HTR1D; 0.1μM tracer): 0.63; NanoBRET Fold Response (HTR1D; 1μM tracer): 1.14
6 | COc1ccccc1N1CCN(CCCCN2C(=O)c3ccc(CNC(=O)CCOCCOCCOCCOCCNC(=O)CCc4ccc5n4[B-](F)(F)[N+]4=C(c6ccc[nH]6)C=CC4=C5)cc3C2=O)CC1 [NAN-190-2-NB590] | 1.02 | 1.21 | 1.02 |  | 1.04 | 1.00 | 1.03 | 1.04 | 1.11 | 1.11 | 1.02 |  | 0.94 | 1.08 |  | 1.02 | 1.35 | 1.41 | 
